Data as given in patent US20200055883A1, “CYCLIC DI-NUCLEOTIDES DERIVATIVE FOR THE TREATMENT OF CANCER” (Eisai R&D Management Co., Ltd., priority 2017, published 2020).

Key:
human PBMC [1] = test: Ex vivo human PBMC stimulation assay, IFNβ protein; type: cell-based; settings: 0.1, 1, 10 uM, 24 hours
Description: After 24 hours of incubation the tubes were centrifuged at 1400 rpm for 5 minutes and supernatants were harvested. Supernatant were stored in −80° C. for subsequent IFNβ measurement. IFNβ measurement was done using Human IFN-β Base Kit (Meso Scale Diagnostics cat # K151ADA) and protocol provided by manufacturer was used. IFN-beta estimation was done by reading assay plate at MESO SECTOR Imager 2400 and using MSD Discovery Workbench 4.0 program. After 24 hours IFNβ protein was analyzed.
Results shown in Table 10 reflect an average of measurements conducted using five different donors.

[2] = system: hepatocytes of CD-1 mouse; test: Hepatocyte incubation, metabolite identification, mouse; type: in vitro ADME; settings: LC-MS/MS
Description: (§1) Cryopreserved pooled hepatocytes were purchased from ThermoFisher Scientific (Waltham, Mass.), Xenotech, LLC (Kansas City, Kans.) and In Vitro ADMET Laboratories (Columbia, Md.), and the appropriate media were purchased from In Vitro ADMET Laboratories (Columbia, Md.) and Life Technologies (Carlsbad, Calif.). AOPI staining solution and phosphate buffer were obtained from Corning Life Sciences (Tewksbury, Mass.) and Nexcelom Bioscience (Lawrence, Mass.), respectively. All chemicals, reagents, and solvents used in analysis were of either analytical or HPLC grade.
(§2) Prior to incubations, the cryopreserved hepatocytes were thawed in a water bath at 37° C. One tube of cryopreserved hepatocytes was added to each 50-mL conical tube of cryopreserved hepatocyte recovery medium (UCRM) obtained from In Vitro ADMET Laboratories (Columbia, Md.). The cells were spun in a Beckman centrifuge (Brea, Calif.) with a GH 3.8 rotor at 740 rpm for 10 minutes at room temperature 4° C. […] The solution was gently mixed and cells were counted using a Cellometer (Nexcelom, Lawrence, Mass.). […]
(§3) The LC-MS/MS system was composed of a Shimadzu HPLC and an AB-SCIEX TripleTOF 5600 hybrid quadrupole and TOF mass spectrometer (Framingham, Mass.). […] The samples obtained from incubations with hepatocytes were analyzed under both negative and positive scan modes. […]

[3] = system: hepatocytes of Sprague Dawley rat; test: Hepatocyte incubation, metabolite identification, rat; type: in vitro ADME; settings: LC-MS/MS
Description: as §1, §2, §3

[4] = system: hepatocytes of Beagle dog; test: Hepatocyte incubation, metabolite identification, dog; type: in vitro ADME; settings: LC-MS/MS
Description: as §1, §2, §3

[5] = system: hepatocytes of Cynomolgus monkey; test: Hepatocyte incubation, metabolite identification, monkey; type: in vitro ADME; settings: LC-MS/MS
Description: as §1, §2, §3

hepatocytes of human = test: Hepatocyte incubation, metabolite identification, human; type: in vitro ADME; settings: LC-MS/MS
Description: as §1, §2, §3

CT26 tumor = test: CT26 dual tumor model; settings: all the lower doses (0.6-5 mg/kg), I.T., single dose
Description: For study B, treatment was started 8 days (0.6 mg/kg, and 10 mg/kg) after the tumor implantation, when the average tumors reached approximately 120 mm^3.
All the mice in the study have two subcutaneous CT26 tumors. The “treated tumor” indicates the tumor with compound direct administration, while “untreated tumor” indicates the tumor without direct compound administration. Tumor volume was followed throughout the experiment. Tumor volume is measured two times weekly after the start of treatment. Tumor burden is calculated from caliper measurements by the formula for the volume of a prolate ellipsoid (L×W^2)/2 where L and W are the respective orthogonal length and width measurements (mm).

human PBMC [6] = test: Ex vivo human PBMC stimulation assay, IFNβ mRNA (qPCR); settings: 0.1-10 μM, 3 hr and 24 hr
Description: For IFNβ mRNA quantification, total RNA was isolated using the RNeasy Mini Kit (Qiagen, Germany) according to the manufacturer's protocol. IFNβ mRNA was quantified by qPCR assay. In brief, total RNA (400 ng to 1000 ng) was converted to cDNA in a 60-μl reaction volume using SuperScript VILO MasterMix (Life Technologies, USA). Obtained cDNAs (10 ng) were subsequently amplified using Applied Biosystems TaqMan expression assays using RNA-specific primers for IFNB1 (Hs01077958_s1), and GAPDH (Hs99999905_m1). A qPCR analysis was performed with TaqMan Fast Advanced Master Mix (Life Technologies, USA) on the Applied Biosystems Quantstudio 12K Flex Real-Time PCR System, with an initial 2-min step at 50° C. followed by 95° C. for 2 s and 40 cycles of 95° C. for 1 s and 60° C. for 20 s. Relative gene expression was calculated after normalization against the reference gene GAPDH using the 2-ΔΔCT method. Calculations were done using the Applied Biosystems Quantstudio 12K Flex software v1.2.2.

## O=[P@]1(S)OC[C@H]2O[C@@H]3[C@H](F)[C@@H]2O[P@](=O)(S)OC[C@H]2O[C@H]([C@H](F)[C@@H]2O1)n1cnc2c(ncnc21)NC/C=C/CNc1ncnc2c1ncn23 [Compound 1a]
Human PBMC [1]
  induction of primary human PBMC IFNβ protein production: dose-dependent manner
[2]
  metabolites identified in hepatocyte incubations: No apparent metabolite
[3]
  metabolites identified in hepatocyte incubations: No apparent metabolite
[4]
  metabolites identified in hepatocyte incubations: No apparent metabolite
[5]
  metabolites identified in hepatocyte incubations: No apparent metabolite
Hepatocytes of human
  metabolites identified in hepatocyte incubations: No apparent metabolite
CT26 tumor
  anti-tumor effect on untreated tumors: tumor growth inhibition activity
Human PBMC [6]
  induction of IFNβ mRNA in primary PBMC: dose- and time-dependent manner
